Results taken from PMC6533572, “Elucidation of the Differences in Cinobufotalin’s Pharmacokinetics Between Normal and Diethylnitrosamine-Injured Rats: The Role of P-Glycoprotein” (Frontiers in Pharmacology, 2019).
Values after ≈ are worked out from the molar mass of the structure shown. Values joined by “and” are separate entries in the source; they are usually repeats but may differ in a detail not shown here. Equal entries are not always repeated. Where two headings read alike, the source gives them in different places.

Tests used:
Water solubility = assay type: physicochemical; settings: pH 7.0
Description: Traditional Chinese Medicine (TMC) is widely used due to high efficiency and low toxicity in the treatment of various diseases. Toad venom (also known as Chan’su) is derived from the dried skin secretions of giant toads (Bufo gargarizans Cantor or Bufo melanostictus Suhneider) and is currently used in clinical practice, such as Cinobufacini injection, to treat HCC ([Kamano et al., 2002]; [Tang et al., 2008]; [Hu et al., 2011]; [Zhang et al., 2018]). Cinobufotalin (Figure 1A), a bufadienolide in chemical structure, is one of the major anti-tumor components of Cinobufacini injection ([Tao et al., 2010]; [Zhang et al., 2018]). […] This implied that cinobufotalin has shown excellent druggability.

[1] = Stability in rat plasma under storage conditions; assay type: physicochemical
Experimental: In addition, the stabilities of cinobufotalin at 20, 200, and 2000 ng/mL in different storage conditions were evaluated, including short term stability (such as 25°C for 4, 8, 12, and 24 h and 4°C for 4, 8, 12, and 24 h), long term stability (-80°C for 10 days) and three freeze-thaw cycles in rat plasma. Stabilities were expressed as the concentrations after different operations to the concentration at time zero. All of the samples were processed as described in Preparation of rat plasma samples section. A 5 μL aliquot was injected to UPLC-QTOF/MS for analyses.

[2] = Pharmacokinetic study after i.v. injection in normal and DEN-injured rats; assay type: in vivo, Sprague Dawley rats; settings: i.v. 2.5 mg/kg, two-compartment model; for AUC / C0 / clearance / half-life: male, Sprague Dawley, rat, plasma, iv; for half-life: read-out: t1/2β (converted)
Experimental: Male Sprague Dawley rats (200–220 g), used for pharmacokinetic (PK) studies, were purchased from Beijing Vital River Laboratory Animal Technology Co., Ltd. (Beijing, China). All animals were housed under standardized condition (12 h light/dark schedule), and they were kept 1 week prior to experiments for acclimation. All animal experiments were carried out in accordance with the National Institutes of Health guide for the care and use of Laboratory animals (NIH Publications No. 8023, revised 1978) and were approved by the Medical and Research Ethics Committee of College of Medicine, Henan University.
For PK studies, the rats were randomly divided into two experimental groups (10 rats for normal rats group and 20 rats for DEN-injured rats group, considering the animal casualties during the modeling process). HCC rat model was established by intraperitoneal administration of 50 mg/kg DEN two times per week ([Fuchs et al., 2014]), and the control group rats were treated with normal saline in the same way. After 14 weeks of administration, three rats were randomly selected and anesthetized by anesthesia cocktail (Ketamine 50 mg/mL, Xylazine 3.3 mg/mL and Acetopromazine 3.3 mg/mL). Then the liver was taken out and photographed to determine whether the animal model was successfully constructed.
Before PK experiment, a cannula was introduced into the jugular vein of the anesthetized rat and administrated carprofen subcutaneously after the surgery. After observation for 24 h, when the activity and excretion of rats were normal, rats were dosed with cinobufotalin at 2.5 mg/kg through jugular vein cannula. Blood samples (200 μL) were withdrawn at each pointed time (5, 10, 15, 30, 45 min, and 1, 1.5, 2, 4, 6, 8, 12, and 24 h) after dosing, and whole blood was transferred into tubes pre-treated with heparin (1000 U/mL). Then an equal volume of saline was injected into rats through jugular vein cannula immediately. The blood samples were immediately centrifuged at 4°C (8000 g, 10 min) to obtain the plasma, and the plasma samples were stored at -80°C until analysis. After sampling at the last time point, all rats were anesthetized immediately. Blood was washed out with ice-cold saline through the hepatic portal vein, and then liver tissues were removed, weighed and stored at -80°C until analysis.
Hundred microliter of plasma was transferred to a new clean tube, and samples were treated with protein precipitation assay as described in Preparation of rat plasma samples section. Then calibration curve was prepared to quantify the amount of cinobufotalin in plasma samples according to the steps as described in method validation part.
PK and statistical data analyses were performed using WinNonlin 3.3. The two-compartment model (two-compartment i.v.-Bolus, macro-constants, no lag time, first order elimination, Figure 2) was selected to obtain the PK parameters of cinobufotalin in rats. The model equation was as followed:
(3) C(t)=A∗EXP(−Alpha∗t)+B∗EXP(−Beta∗t)

HepG2 cells = experiment: Cell viability CCK-8 assay, HepG2 cells; assay type: cell-based; settings: Homo sapiens, 40 nM, 60 nM and 80 nM, 24 h, read-out: inhibition of HepG2 cells growth (CCK-8)
Experimental: Hepatocellular cancer cells (HepG2 and Huh-7) were purchased from the cell bank of the Chinese Academy of Science (Shanghai, China). These cells were cultured in Dulbecco’s modified Eagle’s medium (DMEM) containing 10% fetal bovine serum (FBS), penicillin (100 units/mL) and streptomycin (100 units/mL) in a humidified atmosphere with 5% CO2 at 37 °C.
Furthermore, the effect of cinobufotalin at 40, 60, 80 nM on hepatocellular cancer cells (HepG2 and Huh-7 cells) viability was conducted using Cell Counting Kit - 8 (CCK-8) assay (Sigma-Aldrich, St Louis, MO). In brief, cells were seeded into 96-well plates at 5 × 10^3 cells/well and cultured for 24 h in DMEM medium as described in 1.1 section. Then various concentrations of cinobufotalin (40, 60, 80 nM) were added into cells. After 24 h treatment, 10 μL of CCK-8 solution was added into every well of the plate. The plate was incubated in the incubator for other 4 h, and then the absorbance was measured at 450 nm using a microplate reader (Thermo Scientific, Rockford, IL). The cell viability was calculated by the formula: cell viability (100%) = (OD value of the treated wells - OD value of the blank control wells) / (OD value of the negative control wells - OD value of the blank control wells).

Compound: CC(=O)O[C@H]1[C@H]2O[C@]23[C@@H]2CC[C@]4(O)C[C@@H](O)CC[C@]4(C)[C@H]2CC[C@]3(C)[C@H]1c1ccc(=O)oc1 [Cinobufotalin]
- solubility (Water solubility): 117 µg/mL (≈ 256 µM)
- Stability in rat plasma, Freezing-thaw 3 cycles ([1]; 20 ng/mL): 99.2 ± 0.8%
- Stability in rat plasma, -80°C for 10 days ([1]; 200 ng/mL): 100.9 ± 1.2%
- Stability in rat plasma, Freezing-thaw 3 cycles ([1]; 200 ng/mL): 95.6 ± 1.6%
- Stability in rat plasma, -80°C for 10 days ([1]; 2000 ng/mL): 97.3 ± 5.6%
- Stability in rat plasma, Freezing-thaw 3 cycles ([1]; 2000 ng/mL): 99.2 ± 0.6%
- CL2 ([2]; DEN-injured rats): 135 ± 28.3 mL/min/kg
- K10 ([2]; DEN-injured rats): 1.0 ± 0.3^* 1/h
- K21 ([2]; DEN-injured rats): 0.3 ± 0.1 h⁻¹
- V ([2]; DEN-injured rats): 2.4 ± 0.6 L/kg
- V2 ([2]; DEN-injured rats): 31.5 ± 10.4 L/kg
- K12 ([2]; DEN-injured rats, 2.5 mg/kg): 3.2 ± 0.8 h⁻¹
- t1/2α ([2]; DEN-injured rats, 2.5 mg/kg): 0.2 ± 0.1 h
- AUC ([2]; 2.5 mg/kg, DEN-injured rats): 1100 ± 300 ng·h/mL
- C0 ([2]; 2.5 mg/kg, DEN-injured rats): 1100 ± 300 ng/mL
- clearance ([2]; 2.5 mg/kg, DEN-injured rats): 40 mL/min/kg
- half-life ([2]; 2.5 mg/kg, DEN-injured rats): 13.4 ± 5.8 h
- AUC ([2]; 2.5 mg/kg, normal rats): 2600 ± 500 ng·h/mL
- C0 ([2]; 2.5 mg/kg, normal rats): 1400 ± 400 ng/mL
- clearance ([2]; 2.5 mg/kg, normal rats): 16.7 mL/min/kg
- half-life ([2]; 2.5 mg/kg, normal rats): 13.2 ± 1.3 h
- CL2 ([2]; normal rats): 55 ± 6.7 mL/min/kg
- K10 ([2]; normal rats): 0.5 ± 0.2 h⁻¹
- K21 ([2]; normal rats): 0.3 ± 0 h⁻¹
- V ([2]; normal rats): 2.1 ± 0.6 L/kg
- V2 ([2]; normal rats): 13.1 ± 1.3 L/kg
- t1/2α ([2]; normal rats): 0.3 ± 0.1 h
- K12 ([2]; normal rats, 2.5 mg/kg): 1.8 ± 0.5 h⁻¹ and 1.8 ± 0.8 h⁻¹
- inhibition at 0.04 µM (HepG2 cells): < 15%
